Here are results for 24 molecules from patent publication US4352928A, “5,6-Alkylenepyrimidine derivative” (Mitsubishi Yuka Pharmaceutical Co., Ltd., priority 1979, dated 1982).

Where two headings read alike, the source gives them in different places. Some results are limits rather than exact numbers.

The conditions of data set [1]: Japanese Patent Provisional Publication No. 35-12079/1960; cited from earlier work.
For data set [2] the following is noted: Japanese Patent Provisional Publication No. 35-12079/1960; cited from earlier work. This is another data set of the same source.
For data set [3] the following is noted: Biochem. & Biophys. Res. Commu., 34, 495 (1969); cited from earlier work.
The subject of data set [4] is Blood Platelet Aggregation. The experiment in a line: Blood Platelet Aggregation Suppressive Effect (collagen-induced, platelet rich plasma). The class given is cell-based, rabbit. To be noted: Oryctolagus cuniculus, 2 min, read-out: Suppressive Ratio. The procedure: A rabbit was starved for 18 hours, and the veinal blood was taken from the carotid artery of the rabbit. […] The mixture was centrifuged at 200 G for 15 minutes to collect the platelet rich plasma (PRP). The residual portion was further centrifuged at 2000 G for 15 minutes to collect the platelet poor plasma (PPP). Subsequently, 250 μl. of the PRP was placed in a cuvette, and the methanol solution containing the test sample of the concentration set forth in Table 4 was added. Incubation was carried out for 2 minutes, and a collagen solution was added to the incubated solution to result in the final concentration of 3 μg./ml. so as to induce aggregation. The condition of the aggregation was measured in the Aggregation Meter (available from Shenco Co., Ltd.) and recorded.
The suppressive ratio was calculated based on the following equation. [formula] A: Maximum aggregation ratio observed when a solvent only was added. B: Maximum aggregation ratio observed when the test sample was added.

A further data set has as its system blood sugar level. The data set can be described thus: Blood Sugar Level Lowering Effect (2-deoxy-D-glucose induced high blood sugar level). Particulars: po, mouse, 1 hour after 2-deoxy-D-glucose 500 mg/kg, read-out: Suppressive Ratio; for inhibition in vivo at 30 mg/kg: 30 mg/kg p.o. The class given is in vivo, ICR-JCL mouse, male. The method, then: To a ICR-JCL mouse, male, having the weight ranging from 25 to 30 g. was orally administered the test sample and, after 15 minutes, 2-deoxy-D-glucose was administered into the cavity of the mouse in the amount of 500 mg/kg to induce a high blood sugar level. The blood was taken after 1 hour, and the blood sugar concentration was determined in the blood serum obtained upon centrifugation, by means of a commercially available test kit (trade name: Glucomesser, produced by Tokyo Zooki Kagaku Co., Ltd., Japan). The suppressive ratio was calculated based on the following equation. [formula] A: Blood sugar level of the positive control group B: Blood sugar level of the negative control group
C: Blood sugar level of the test sample administered group

A further data set relates to inflammation. The experiment in a line: Anti-Inflammatory Effect (carrageenan-induced swelling of the hind foot). The class given is in vivo, Wister male rat. To be noted: po, rat, 3 hours after carrageenan, read-out: Suppressive Ratio; for inhibition in vivo at 50 mg/kg: 50 mg/kg p.o. The method, then: A Wister male rat having the weight ranging from 120 to 150 g. was starved for 18 hours, and to this was then orally administered the test sample. After lapse of one hour, 0.05 ml. of 1% solution of carrageenan was administered through subcutaneous injection in the plantar surface of the right hind foot to produce inflammation. The volume of the right hind foot was measured prior to the injection of carrageenan and again at 3 hours after the administration through injection. The ratio of the increase of the foot volume was calculated to express in percent based on the measured values. The so calculated ratio was compared with the calculated ratio on the control data to give the dropsical swelling suppressive ratio.

In another data set the test system is blood pressure. The experiment in a line: Anti-Hypertensive Effect (spontaneously hipertensive rat). It is filed as in vivo, male. Particulars: SHR. The procedure: To a spontaneously hipertensive rat (SHR), male, aged 20-30 weeks, blood pressure under contraction 150 mmHg. was orally administered the test sample. The mean blood pressure of the rat was measured under non-anesthetic conditions at 1, 3, 6 and 24 hours after the administration via cannula inserted into the main artery in the abdomen.

For a further data set, the system named is ICR-JCL mouse. The experiment in a line: Acute Toxicity on Mouse. Further details: species or system male. To be noted: in vivo, po. The procedure:
A ICR-JCL mouse, male, was starved for 18 hours, and to the mouse was orally administered the test sample suspended in 1% tragacantha solution. The condition was observed during one week after the administration and the LD50 was calculated.

Where [5] appears, read: 100 μM, rabbit PRP, collagen 3 μg/ml.

On to `Nc1nc(N)c2c(n1)CCCC2` [2,4-diamino-5,6-tetramethylenepyrimidine], for which the antibacterial activity entry in data set [1] is “antibacterial activity”. The carcinostatic effect result in data set [2] is recorded as “has a carcinostatic effect”. The antagonism against pteridine result in data set [3] was “has antagonism against pteridine”.

As to `CC(=O)Oc1ccccc1C(=O)O` [Aspirin, reference compound], the inhibition at 100 µM in data set [4] came out at 100%.

Regarding `Nc1nc(N2CCNCC2)nc2c1CCCC2` [Compound No. 1, 2-Piperazino-4-amino-5,6-tetramethylenepyrimidine], the inhibition at 100 µM in data set [4] (setting [5]) was 100%. The inhibition in vivo at 30 mg/kg with blood sugar level came out at 67.8%.

Regarding `Nc1nc(N2CCN(Cc3ccccc3)CC2)nc2c1CCCC2` [Compound No. 3, 2-(4-Benzylpiperazino)-4-amino-5,6-tetramethylenepyrimidine], the inhibition in vivo at 50 mg/kg in the data set on inflammation was determined as 46%.

Turning to `C=CCN1CCN(c2nc(N)c3c(n2)CCCC3)CC1` [Compound No. 4, 2-(4-Allylpiperazino)-4-amino-5,6-tetramethylenepyrimidine], the inhibition in vivo at 50 mg/kg in the data set on inflammation is 51.2%.

As to `Nc1nc(N2CCN(C(=O)C=Cc3ccccc3)CC2)nc2c1CCCC2` [Compound No. 10, 2-(4-Cinnamoylpiperazino)-4-amino-5,6-tetramethylenepyrimidine], in the data set on blood pressure (25 mg/kg p.o.), the “Change of Blood Pressure at 3 Hours after Administration” value (from here on “Change of Blood Pressure at 3 Hours”) is -22 mmHg. In addition, the inhibition in vivo at 50 mg/kg in the data set with inflammation came to 79.9%.

As for `Nc1nc(N2CCN(C(=O)C=Cc3ccco3)CC2)nc2c1CCCC2` [Compound No. 14, 2-[4-{3-(Furan-2-yl)acryloyl}piperazino]-4-amino-5,6-tetramethylenepyrimidine], in the data set with inflammation (25 mg/kg p.o.), the inhibition in vivo at 25 mg/kg is 53.9%. Moreover, in the data set with blood sugar level, the inhibition in vivo at 30 mg/kg is 60.2%.

For the molecule `Nc1nc(N2CCN(C(=O)Nc3ccccc3)CC2)nc2c1CCCC2` [Compound No. 18, 2-(4-Phenylcarbamoylpiperazino)-4-amino-5,6-tetramethylenepyrimidine], the “Change of Blood Pressure at 3 Hours” value in the data set on blood pressure (50 mg/kg p.o.) is on record as -17 mmHg. Also, the inhibition in vivo at 50 mg/kg in the data set with inflammation stood at 33.8%.

In the case of `Nc1nc(N2CCN(c3ccccn3)CC2)nc2c1CCCC2` [Compound No. 32, 2-[4-(2-Pyridyl)piperazino]-4-amino-5,6-tetramethylenepyrimidine], the “Change of Blood Pressure at 3 Hours” value with blood pressure (50 mg/kg p.o.) is reported as -18 mmHg. In the data set with blood sugar level, the inhibition in vivo at 30 mg/kg worked out at 60.1%.

With `CNc1nc(N2CCNCC2)nc2c1CCCC2` [Compound No. 35, 2-Piperazino-4-methylamino-5,6-tetramethylenepyrimidine], the inhibition at 100 µM in data set [4] (setting [5]) worked out at 87.7%. In addition, the inhibition in vivo at 30 mg/kg in the data set with blood sugar level turned out to be 77.4%.

Take `Nc1nc(N2CCNCC2)nc2c1CCC2` [Compound No. 54, 2-Piperazino-4-amino-5,6-trimethylenepyrimidine]: the inhibition in vivo at 30 mg/kg with blood sugar level is 107%.

Regarding `Nc1nc(N2CCN(Cc3ccccc3)CC2)nc2c1CCC2` [Compound No. 56, 2-(4-Benzylpiperazino)-4-amino-5,6-trimethylenepyrimidine], the inhibition in vivo at 30 mg/kg in the data set with blood sugar level was found to be 44.5%.

As for `Nc1nc(N2CCNCC2)nc2c1CCCCC2` [Compound No. 63, 2-Piperazino-4-amino-5,6-pentamethylenepyrimidine], the inhibition in vivo at 30 mg/kg in the data set with blood sugar level came to 78.9%.

For `Nc1nc(N2CCN(C(=O)C=Cc3ccccc3[N+](=O)[O-])CC2)nc2c1CCCC2` [compound 11, 2-[4-(2-Nitrocinnamoyl)piperazino]-4-amino-5,6-tetramethylenepyrimidine], in the data set with blood pressure (50 mg/kg p.o.), the “Change of Blood Pressure at 3 Hours” value is reported as -17 mmHg.

For `Nc1nc(N2CCN(C(=S)Nc3ccccc3)CC2)nc2c1CCCC2` [compound 23, 2-(Phenylthiocarbamoylpiperazino)-4-amino-5,6-tetramethylenepyrimidine], the inhibition in vivo at 50 mg/kg in the data set on inflammation turned out to be 23.9%.

Regarding `Nc1nc(N2CCN(c3ccccc3)CC2)nc2c1CCCC2` [compound 28, 2-(4-Phenylpiperazino)-4-amino-5,6-tetramethylenepyrimidine], in the data set on inflammation, the inhibition in vivo at 50 mg/kg came out at 52.7%.

In the case of `Nc1nc(N2CCN(c3ccc(Cl)cc3)CC2)nc2c1CCCC2` [compound 29, 2-[4-(4-Chlorophenyl)piperazino]-4-amino-5,6-tetramethylenepyrimidine], in the data set with inflammation, the inhibition in vivo at 50 mg/kg amounted to 46.8%. In addition, in the data set with blood sugar level (10 mg/kg p.o.), the inhibition in vivo at 10 mg/kg worked out at 49.1%.

Turning to `CN(C)c1nc(N2CCNCC2)nc2c1CCCC2` [compound 41, 2-Piperazino-4-dimethylamino-5,6-tetramethylenepyrimidine], the inhibition in vivo at 30 mg/kg in the data set on blood sugar level is 50.8%.

As to `C1CCc2c(nc(N3CCNCC3)nc2N2CCCC2)C1` [compound 45, 2-Piperazino-4-pyrrolidino-5,6-tetramethylenepyrimidine], the inhibition at 30 µM in data set [4] (rabbit PRP, collagen 3 μg/ml) was 72%.

As to `CN1CCN(c2nc3c(c(N4CCCC4)n2)CCCC3)CC1` [compound 46, 2-(4-Methylpiperazino)-4-pyrrolidino-5,6-tetramethylenepyrimidine], the inhibition at 30 µM in data set [4] (rabbit PRP, collagen 3 μg/ml) amounted to 100%.

For the molecule `O=CN1CCN(c2nc3c(c(N4CCOCC4)n2)CCCC3)CC1` [compound 47, 2-(4-Formylpiperazino)-4-morpholino-5,6-tetramethylenepyrimidine], the inhibition at 30 µM in data set [4] (rabbit PRP, collagen 3 μg/ml) came out at 100%.

For the molecule `C1CCc2c(nc(N3CCNCC3)nc2N2CCOCC2)C1` [compound 48, 2-Piperazino-4-morpholino-5,6-tetramethylenepyrimidine], in data set [4] (rabbit PRP, collagen 3 μg/ml), the inhibition at 30 µM was 46%. Also, in the data set on blood sugar level, the inhibition in vivo at 30 mg/kg came out at 95.9%.

The LD50 is the dose at which mortality reaches 50%. Low values mean a more toxic substance, high ones a less toxic substance. `CN1CCN(c2nc3c(c(N4CCOCC4)n2)CCCC3)CC1` [compound 49, 2-(4-Methylpiperazino)-4-morpholino-5,6-tetramethylenepyrimidine]: the inhibition at 30 µM in data set [4] (rabbit PRP, collagen 3 μg/ml) came out at 95.2%. The molecule also came in with a median lethal dose (LD50) in the data set on ICR-JCL mouse above 500 mg/kg.

As to `OCCNc1nc(N2CCNCC2)nc2c1CCCC2` [compound 51, 2-Piperazino-4-(2-hydroxyethyl)amino-5,6-tetramethylenepyrimidine], in data set [4] (setting [5]), the inhibition at 100 µM amounted to 89.1%.
